Counter-ions that a name gives are not always drawn. Like-named read-outs stand apart in the source and are kept apart here.

The target in one data set is 5-HT2A (Homo sapiens (Human), UniProt P28223). Put plainly: FLIPR Ca2+ flux agonist assay, 5-HT2A. In kind it is cell-based. To be noted: for 5-HT2A % Act @ Max Dose / EC50: HEK293. The protocol:
A solution of 250 mM probenecid in 1 mL FLIPR assay buffer was prepared fresh. This was combined with a fluorescent dye (Fluo-4 Direct™) to make a final assay concentration of 2.5 mM. […] The fluorescent dye was then added to the assay plate along with assay buffer to a final volume of 40 μL. The cell plate was incubated for 50 min at 37° C. and 5% CO2 and placed into the FLIPR Tetra along with the compound plate. 10 μL of references and compounds were then transferred from the compound plate into the cell plate and the fluorescent signal was read.

Data set [1] deals with monoamine oxidase A and B (MAO-A and MAO-B). Kind of data set: Stability in the presence of monoamine oxidases (human liver mitochondria). To be noted: for MAO stability (in words): human liver mitochondria preparation; for half-life at 1 μM / microsomal CLint at 1 μM: human liver mitochondria, pH 7.4; for half-life at 1 μM / microsomal CLint at 1 μM / Remaining (t = 60 min): human mitochondrial preparation, 1 μM. In kind it is in vitro ADME. As for the experimental part: Liver Mitochondria Incubations. Human liver mitochondria (Xenotech H0610.M) were used. Mitochondrial incubations were carried out in multi-well plates. […] Six time points over 60 minutes were analyzed.

Data set [2] can be described thus: Metabolic stability in mouse liver microsomes (MLM). In kind it is in vitro ADME, CD-1 mice. The following applies: CD-1, mouse, pooled mouse liver microsomes, pH 7.4, NADPH. As for the experimental part: MLM Stability. Pooled MLM from CD-1 mice (BIOIVT M00501) were used. Microsomal incubations were carried out in multi-well plates. […] Control incubations were performed by replacing the NADPH-cofactor system with PBS. Test compounds (1 μM, final solvent concentration 1.0%) were incubated with microsomes at 37° C. with constant shaking. Six time points over 60 minutes were analyzed, with 60 μL aliquots of the reaction mixture being drawn at each time point.

The target in data set [3] is serotonin transporter (SERT) (Homo sapiens (Human), UniProt P31645). Put plainly: SERT fluorescent substrate uptake inhibition in transfected HEK293 cells. The following applies: HEK293 cells expressing SERT. It counts as cell-based. As for the experimental part:
SERT Uptake Inhibition. The ability of test compounds to block monoamine uptake by SERT was determined using the Neurotransmitter Transporter Uptake Assay Kit manufactured by Molecular Devices (Cat #R8173). Briefly, stably transfected HEK293 cells expressing SERT were grown and plated into 384-well plates at a concentration of 20,000 cells per well. Plates were then incubated for 16-20 h at 37° C. and 5% CO2. The medium was then aspirated and replaced with 25 μL of assay buffer (20 mM HEPES in HBSS, containing 0.1% BSA) containing the test compounds at the appropriate concentrations. Plates were then centrifuged at 300 rpm for 15 s and then incubated at 37° C. for 30 minutes. At this time, 25 μL of the proprietary fluorescent dye solution was added, the plates were incubated at 37°° C. for 60 minutes, and then fluorescence was quantified on a plate reader (excitation wavelength =440 nm, emission wavelength=520 nm). The proprietary dye solution contains a mixture of 1) a fluorescent dye (dye 1) that mimics the endogenous substrate of SERT and is thereby actively transported to the intracellular compartment in the absence of an inhibitor and 2) a masking dye that inhibits the fluorescence of dye 1 in the extracellular compartment. Therefore, the overall fluorescence of the system increases as the fluorescent dye is transported into the cells.

A short description of data set [4]: Pharmacokinetics in mice, plasma. In kind it is in vivo, C57BL/6 mice. The following applies: for F: mouse, based on plasma AUC0-last. The protocol:
Animals. Male C57BL/6 mice, aged 8-12 weeks, were used in these studies. Four mice were housed in each cage. Temperature and humidity were maintained at 22±3° C. and 30-70%, respectively, and illumination was controlled to give a 12 h light and 12 h dark cycle. Temperature and humidity were recorded by an auto-controlled data logger system. All animals were provided laboratory rodent diet. Reverse osmosis water treated with ultraviolet light was provided ad libitum. Animals were randomly assigned to treatment groups.
Drugs. Compounds 4 and 5 were prepared as described above. All other compounds were commercially obtained. Test compounds were used as the hydrogen fumarate (1 and 2) or hydrochloride (3, 4, and 5) salts and were dissolved in a vehicle consisting of normal saline. They were then administered intravenously (IV) via the tail vein, subcutaneously (SC), or orally (PO) via gavage at a dose of 1 or 10 mg/kg (calculated based on the free base) and at a volume of 5 ml/kg body weight.
Sample Collection and Bioanalysis. Blood samples (approximately 60 μL) were collected under light isoflurane anesthesia (Surgivet®) from the retro orbital plexus at 0.08, 0.25, 0.5, 1, 2, 4, 8, and 24 h (4 animals per time point). Immediately after blood collection, plasma was harvested by centrifugation at 4,000 rpm for 10 min at 4° C. and samples were stored at −70±10° C. until bioanalysis. Following blood collection, animals were immediately sacrificed, the abdominal vena-cava was cut open, and the whole body was perfused from the heart using 10 mL of normal saline, and brain samples were collected from all animals. After isolation, brain samples were rinsed three times in ice-cold normal saline (for 5-10 seconds/rinse using ˜5-10 mL normal saline in disposable petri dish for each rinse) and dried on blotting paper. Brain samples were homogenized using ice-cold phosphate-buffered saline (pH 7.4). Total homogenate volume was three times the tissue weight. All homogenates were stored at −70±10° C. until bioanalysis. For bioanalysis, 25 μL aliquots of plasma/brain study samples or spiked plasma/brain calibration standards were added to individual pre-labeled micro-centrifuge tubes followed by 100 μL of an internal standard solution (glipizide, 500 ng/ml in acetonitrile) except for blanks, where 100 μL of acetonitrile was added. Samples were vortexed for 5 minutes and then centrifuged for 10 minutes at 4,000 rpm at 4° C. Following centrifugation, 100 μL of each clear supernatant was transferred to a 96 well plate and analyzed with a fit-for-purpose LC-MS/MS method, with authentic samples of each analyte used for calibration and identification.
Data Analysis. Pharmacokinetic parameters were estimated using the non-compartmental analysis tool of Phoenix® WinNonlin software (Ver 8.0).

Where [5] appears, read: male, C57BL/6, mouse plasma, IV, 10 mg/kg.
Setting [6] is: male, C57BL/6, mouse plasma, SC, 1 mg/kg.
[7] abbreviates: male, C57BL/6, mouse plasma, SC, 10 mg/kg.
Where [8] appears, read: male, C57BL/6, mouse plasma, SC, 10 mg/kg, read-out: Cmax.
The mark [9] stands for this setting: male, C57BL/6, mouse plasma, oral, 10 mg/kg.

For `CCN(C)CCc1c[nH]c2ccc(F)cc12` [Compound 4, N-ethyl-2-(5-fluoro-1H-indol-3-yl)-N-methylethan-1-amine hydrochloride], on 5-HT2A, the “selectivity for 5-HT2A over 5-HT2B (in words)” value was “highly selective”, the “5-HT2A % Act @ Max Dose” value turned out to be 87.6% and the concentration for a half-maximal effect (EC50) turned out to be 20.6 nM. Besides, in data set [1], the “MAO stability (in words)” value is listed as “intermediate stability”, the half-life at 1 μM is more than 145 min, the intrinsic clearance (microsomal CLint) at 1 μM was less than 15.9 µL/min/mg and the “Remaining (t = 60 min)” value amounted to 75.0%. In data set [2], this molecule displayed a half-life at 1 μM of 47.6 min and a microsomal CLint at 1 μM of 29.1 µL/min/mg. In data set [3], 419 nM corresponded to half-maximal inhibition (IC50) and the “SERT % Inhibition @ Max Dose” value is reported as 77.45%. Moreover, in data set [4] (setting [5]), the AUC(0-t) amounted to 1790 ng·h/mL, the clearance stood at 92.8 mL/min/kg and the half-life is 51.6 min. Moreover, the highest concentration (Cmax) in data set [4] (male, C57BL/6, mouse plasma, IV, 10 mg/kg, read-out: Cmax (C0 back-extrapolated to t = 0)) was 2910 ng/mL. In addition, in data set [4] (setting [6]), the exposure AUC(0-t) stood at 57.5 ng·h/mL, the Tmax was 4.8 min and the half-life was 27 min. Besides, the Cmax in data set [4] (male, C57BL/6, mouse plasma, SC, 1 mg/kg, read-out: Cmax) worked out at 83.2 ng/mL. Also, in data set [4] (setting [7]), the area under the curve AUC(0-t) is 1170 ng·h/mL, the Tmax stood at 30 min and the half-life was 54 min. In addition, in data set [4] (setting [8]), the peak concentration (Cmax) turned out to be 631 ng/mL. Also, in data set [4] (setting [9]), the exposure AUC(0-t) worked out at 623 ng·h/mL, the Tmax was found to be 15 min and the half-life was 80.4 min. For the same molecule, the Cmax in data set [4] (male, C57BL/6, mouse plasma, oral, 10 mg/kg, read-out: Cmax) came out at 272 ng/mL. The F in data set [4] (SC, 1 mg/kg) is on record as 32%. The F in data set [4] (SC, 10 mg/kg) was determined as 65%. Besides, the F in data set [4] (oral, 10 mg/kg) stood at 35%.

Regarding `CCN(C)CCc1c[nH]c2cccc(O)c12` [Compound 6], on 5-HT2A, the “5-HT2A % Act @ Max Dose” value is given as 103.0% and the EC50 came to 15.1 nM. In data set [1], the “MAO stability (in words)” value is recorded as “highly stable”, the half-life at 1 μM is more than 145 min, the microsomal CLint at 1 μM is less than 15.9 µL/min/mg and the “Remaining (t = 60 min)” value is reported as 112.3%. In data set [2], the half-life at 1 μM is more than 145 min and the microsomal CLint at 1 μM was less than 9.6 µL/min/mg. Further, in data set [3], the 50% inhibitory concentration (IC50) was determined as 3270 nM and the “SERT % Inhibition @ Max Dose” value is given as 84.02%. In addition, in data set [4] (setting [7]), the exposure AUC(0-t) came to 1410 ng·h/mL, the Tmax turned out to be 4.8 min and the half-life was 66 min. In data set [4] (setting [8]), the Cmax was 1160 ng/mL.
